Assay results taken from patent US4613695A, “N-nitroso compounds and compositions containing such compounds” (Aktiebolaget Leo, priority 1982, dated 1986).
Read-outs that look alike come from different tables or passages of the source.

Tested on: Lymphatic leukemia L1210
Experiment: Lymphatic leukemia L1210 survival test (survival time increase, long term survival, cure potential)
Format: in vivo, Female BDF1 mice
Settings: for minimal effective dose: Mus musculus, L1210, po; for minimal effective dose / Maximum effective dose (survival time increase) / Dose or dose range for cure: p.o. once; for T.I.s (long term survival; max.effect.dose/min.effect.dose): long term survival T·100/To >20%; for T.I.s = max.effect.dose/min.effect.dose: survival time increase, t·100/c ≥125%; for Dose or dose range for cure: ≥90% long term survivors on day 60; for median survival time percent of control: dose of 125 mg/kg, p.o., called significant activity
Procedure: The experimental design and interpretation of the results are in accordance with the standards set by the CCNSC (see reference (16)) and by the DR&D (see reference (17)).
Experimental animals: Female BDF1 mice
Tumour implants: 10^5 tumour cells implanted intraperitoneally (i. p.)
Therapy: The compounds were administered p. o. once on the day following the implantation.
Termination: The animals were killed on the 60th day after the implantation. Living animals on the 60th day are termed long term survivors.
(a) Evaluation of therapeutic dose range for survival time increase: Survival times at various dose levels are determined, and the survival time of the test animals (t) is expressed as the percentage of that of the control animals (c):
The maximum effective dose and the minimum effective dose required to achieve t·100/c≥125% are determined, and a therapeutic index as defined below is calculated:
T. I.s =max.effect.dose/min.effect.dose.
(b) Evaluation of therapeutic dose range for long term survival: Long time survival is determined at various dose levels and is expressed as surviving test animals on day 60 (T) as the percentage of that of the total number of test animals (To):
The maximum effective dose and the minimum effective dose to achieve long term survival T·100/To >20% are determined and a therapeutic index, T. I.1 s is calculated:
T. I.1s =max.effect.dose/min.effect.dose.
(c) Evaluation of cure potential: The normal survival time for test animals receiving no therapeutic treatment is 9-11 days. Surviving test animals on the 60th day after implantation showing no sign of tumour presence are regarded as cured animals. Long term survival is determined as under (b) above, and the effective dose or dose range to achieve a long term survival T·100/To ≥90% is determined as an evaluation of the cure potential.

[1] = 1440 h, >20% long term survivors on day 60, read-out: Minimum effective dose (long term survival)
[2] = median survival time percent of control ≥ 125%, read-out: Minimum effective dose (survival time increase)
[3] = median survival time percent of control ≥ 125%

| Structure (SMILES) | minimal effective dose [1] | minimal effective dose [2] | T.I.s (long term survival; max.effect.dose/min.effect.dose) | Maximum effective dose (survival time increase) [3] | T.I.s = max.effect.dose/min.effect.dose | Dose or dose range for cure | median survival time percent of control |
| --- | --- | --- | --- | --- | --- | --- | --- |
| O=NN(CCCl)C(=O)NCCS(=O)(=O)NC1CCCCC1 [1:11, 1-(2-chloroethyl)-3-(2-/cyclohexylaminosulfonyl/ethyl)-1-nitrosourea] | 63 mg/kg | 31 mg/kg | 2 | 250 mg/kg | 8 | 125 mg/kg |  |
| CON(C)S(=O)(=O)CCNC(=O)N(CCCl)N=O [1:20, 1-(2-chloroethyl)-3-(2-/N-methoxy-N-methylaminosulfonyl/ethyl)-1-nitrosourea] | 63 mg/kg | 16 mg/kg | 2 | 125 mg/kg | 8 | 63 to 125 mg/kg |  |
| CC(C)(CO)NS(=O)(=O)CCNC(=O)N(CCCl)N=O [1:16, 1-(2-chloroethyl)-3-(2-/1,1-dimethyl-2-hydroxyethylaminosulfonyl/ethyl)-1-nitrosourea] |  |  |  |  |  | 250 mg/kg |  |
| O=NN(CCCl)C(=O)NCCS(=O)(=O)N(CCO)CCO [1:12, 3-(2-/bis(2-hydroxyethyl)aminosulfonyl/ethyl)-1-(2-chloroethyl)-1-nitrosourea] |  |  |  |  |  | 125 mg/kg |  |
| CN(c1ccccc1)S(=O)(=O)CCNC(=O)N(CCCl)N=O [1:18, 1-(2-chloroethyl)-3-(2-/N-methyl-N-phenylaminosulfonyl/ethyl)-1-nitrosourea] |  |  |  |  |  |  | ≥ 125% |
| CC(C)(C)NS(=O)(=O)CCNC(=O)N(CCCl)N=O [1:10, 3-(2-/t-butylaminosulfonyl/ethyl)-1-(2-chloroethyl)-1-nitrosourea] |  |  |  |  |  |  | ≥ 125% |
| CN(C)S(=O)(=O)CCCNC(=O)N(CCCl)N=O [1:21, 1-(2-chloroethyl)-3-(3-/dimethylaminosulfonyl/propyl)-1-nitrosourea] | 31 mg/kg | 8 mg/kg | 2 | 63 mg/kg | 8 | 31 to 63 mg/kg |  |
| COCCNS(=O)(=O)CCNC(=O)N(CCCl)N=O [1:8, 1-(2-chloroethyl)-3-(2-/2-methoxyethylaminosulfonyl/ethyl)-1-nitrosourea] | 31 mg/kg |  | 2 |  |  | 31 to 63 mg/kg |  |
| CN(C)S(=O)(=O)CCNS(=O)(=O)CCNC(=O)N(CCCl)N=O [1:23, 1-(2-chloroethyl)-3-(2-/2-(dimethylaminosulfonyl)ethylaminosulfonyl/ethyl)-1-nitrosourea] | 63 mg/kg |  | 2 |  |  | 125 mg/kg |  |
| CCCCC(C)NS(=O)(=O)CCNC(=O)N(CCCl)N=O (stereo not shown) [1:13, 1-(2-chloroethyl)-3-(2-/1-methylpentylaminosulfonyl/ethyl)-1nitrosourea] |  |  |  |  |  |  | ≥ 125% |
| CN(Cc1ccccc1)S(=O)(=O)CCNC(=O)N(CCCl)N=O [1:17, 3-(2-/N-benzyl-N-methylaminosulfonyl/ethyl)-1-(2-chloroethyl)-1-nitrosourea] | 125 mg/kg | 63 mg/kg | 2 | 500 mg/kg | 8 |  |  |
| CCCCNS(=O)(=O)CCNC(=O)N(CCCl)N=O [1:9, 3-(2-/butylaminosulfonyl/ethyl)-1-(2-chloroethyl)-1-nitrosourea] | 63 mg/kg | 16 mg/kg | 2 | 125 mg/kg | 8 | 63 mg/kg |  |
